Organism: Rattus norvegicus
Assay: Open TG-GATES - Regimen: Daily Repeat
Assay type: toxicity, organism-based, Sprague-Dawley
Parameters: regimen Daily Repeat, gender Male, age 6 weeks
Conditions: in vivo, po, 1000 mg/kg, route gavage, dose level High; for Bas / Eos / Fbg / Hb / Ht / Lym / MCH / MCHC / MCV / Mono / Neu / PT / Plat / RBC / Ret / WBC / APTT: tissue Blood; for KIDNEY_L / KIDNEY_R / KIDNEY_TOTAL: tissue Kidney; for LIVER: tissue Liver; for ALP / ALT / AST / BUN / CRE / Ca / DBIL / GLC / IP / K / LDH / Na / PL / RALB / TBIL / TC / TG / TP / gamma-GTP / Cl: tissue Plasma

CCOc1ccc(NC(C)=O)cc1 [PHENACETIN]
TERMINAL_BW (72 h, time 3 day): 201.2 g | Bas (72 h, time 3 day): 0% | Eos (72 h, time 3 day): 0.8% | Fbg (72 h, time 3 day): 283.2 mg/dL | Hb (72 h, time 3 day): 12.6 g/dL | Ht (72 h, time 3 day): 37.2% | Lym (72 h, time 3 day): 69.4% | MCH (72 h, time 3 day): 19.9 pg | MCHC (72 h, time 3 day): 33.9% | MCV (72 h, time 3 day): 58.8 fL | Mono (72 h, time 3 day): 3.2% | Neu (72 h, time 3 day): 26% | PT (72 h, time 3 day): 13.3 s | Plat (72 h, time 3 day): 131.8 x10_4/uL | RBC (72 h, time 3 day): 633.4 x10_4/ul | Ret (72 h, time 3 day): 1.5% | WBC (72 h, time 3 day): 108.7 x10_2/uL | KIDNEY_L (72 h, time 3 day): 1 g | KIDNEY_R (72 h, time 3 day): 0.9 g | KIDNEY_TOTAL (72 h, time 3 day): 1.9 g | LIVER (72 h, time 3 day): 11 g | ALP (72 h, time 3 day): 1479.6 IU/L | ALT (72 h, time 3 day): 43.2 IU/L | AST (72 h, time 3 day): 73.6 IU/L | BUN (72 h, time 3 day): 17.8 mg/dL | CRE (72 h, time 3 day): 0.2 mg/dL | Ca (72 h, time 3 day): 11 mg/dL | DBIL (72 h, time 3 day): 0.024 mg/dL | GLC (72 h, time 3 day): 154.6 mg/dL | IP (72 h, time 3 day): 6.3 mg/dL | K (72 h, time 3 day): 4.4 meq/L | LDH (72 h, time 3 day): 77.6 IU/L | Na (72 h, time 3 day): 143.8 meq/L | PL (72 h, time 3 day): 202.4 mg/dL | RALB (72 h, time 3 day): 2.7 g/dL | TBIL (72 h, time 3 day): 0.092 mg/dL | TC (72 h, time 3 day): 111.8 mg/dL | TG (72 h, time 3 day): 87.4 mg/dL | TP (72 h, time 3 day): 5.9 g/dL | gamma-GTP (72 h, time 3 day): 1.4 IU/L | TERMINAL_BW ([…], time 7 day): 234.8 g | TERMINAL_BW ([…], time 14 day): 283.3 g | TERMINAL_BW ([…], time 28 day): 363.6 g | APTT ([…], time 7 day): 22.5 s | Bas ([…], time 7 day): 0.4% | Eos ([…], time 7 day): 0.4% | Fbg ([…], time 7 day): 319.6 mg/dL | Ht ([…], time 7 day): 33.4% | Lym ([…], time 7 day): 62.2% | MCH ([…], time 7 day): 22.7 pg | MCHC ([…], time 7 day): 31.2% | MCV ([…], time 7 day): 72.7 fL | Mono ([…], time 7 day): 3% | Neu ([…], time 7 day): 33.4% | PT ([…], time 7 day): 13.6 s | Plat ([…], time 7 day): 156.2 x10_4/uL | RBC ([…], time 7 day): 463.8 x10_4/ul | Ret ([…], time 7 day): 17.7% | WBC ([…], time 7 day): 178.5 x10_2/uL | APTT ([…], time 14 day): 19 s | Bas ([…], time 14 day): 0.2% | Eos ([…], time 14 day): 0.8% | Fbg ([…], time 14 day): 263.6 mg/dL | Ht ([…], time 14 day): 43.1% | Lym ([…], time 14 day): 72% | MCH ([…], time 14 day): 25.1 pg | MCHC ([…], time 14 day): 32% | MCV ([…], time 14 day): 78.4 fL | Mono ([…], time 14 day): 3.2% | Neu ([…], time 14 day): 23.6% | PT ([…], time 14 day): 13.7 s | Plat ([…], time 14 day): 108.2 x10_4/uL | RBC ([…], time 14 day): 550.4 x10_4/ul | WBC ([…], time 14 day): 119.8 x10_2/uL | APTT ([…], time 28 day): 18.1 s | Bas ([…], time 28 day): 0% | Eos ([…], time 28 day): 1% | Fbg ([…], time 28 day): 251.2 mg/dL | Hb ([…], time 28 day): 13.7 g/dL | Lym ([…], time 28 day): 66.8% | MCH ([…], time 28 day): 24.3 pg | MCHC ([…], time 28 day): 33.3% | MCV ([…], time 28 day): 72.8 fL | Mono ([…], time 28 day): 3.2% | Neu ([…], time 28 day): 28.4% | Plat ([…], time 28 day): 106.4 x10_4/uL | RBC ([…], time 28 day): 566.6 x10_4/ul | Ret ([…], time 28 day): 11.5% | WBC ([…], time 28 day): 134.5 x10_2/uL | KIDNEY_L ([…], time 7 day): 1.1 g | KIDNEY_R ([…], time 7 day): 1.1 g | KIDNEY_TOTAL ([…], time 7 day): 2.2 g | KIDNEY_L ([…], time 14 day): 1.3 g | KIDNEY_R ([…], time 14 day): 1.3 g | KIDNEY_TOTAL ([…], time 14 day): 2.5 g | KIDNEY_L ([…], time 28 day): 1.5 g | KIDNEY_R ([…], time 28 day): 1.5 g | KIDNEY_TOTAL ([…], time 28 day): 3 g | LIVER ([…], time 7 day): 11.9 g | LIVER ([…], time 14 day): 13.2 g | ALP ([…], time 7 day): 1794.2 IU/L | ALT ([…], time 7 day): 46.4 IU/L | AST ([…], time 7 day): 73.2 IU/L | BUN ([…], time 7 day): 16 mg/dL | CRE ([…], time 7 day): 0.2 mg/dL | Ca ([…], time 7 day): 11 mg/dL | Cl ([…], time 7 day): 104.8 meq/L | DBIL ([…], time 7 day): 0.04 mg/dL | GLC ([…], time 7 day): 167.4 mg/dL | IP ([…], time 7 day): 5.9 mg/dL | K ([…], time 7 day): 4.5 meq/L | LDH ([…], time 7 day): 81.4 IU/L | Na ([…], time 7 day): 144 meq/L | PL ([…], time 7 day): 172.4 mg/dL | RALB ([…], time 7 day): 2.7 g/dL | TBIL ([…], time 7 day): 0.2 mg/dL | TC ([…], time 7 day): 75.6 mg/dL | TG ([…], time 7 day): 160 mg/dL | TP ([…], time 7 day): 6 g/dL | gamma-GTP ([…], time 7 day): 1.2 IU/L | ALP ([…], time 14 day): 1457 IU/L | ALT ([…], time 14 day): 43.2 IU/L | AST ([…], time 14 day): 68 IU/L | CRE ([…], time 14 day): 0.2 mg/dL | Ca ([…], time 14 day): 10.8 mg/dL | Cl ([…], time 14 day): 103.8 meq/L | DBIL ([…], time 14 day): 0.036 mg/dL | GLC ([…], time 14 day): 168.8 mg/dL | IP ([…], time 14 day): 6.2 mg/dL | K ([…], time 14 day): 4.5 meq/L | LDH ([…], time 14 day): 154 IU/L | Na ([…], time 14 day): 143.2 meq/L | PL ([…], time 14 day): 176.6 mg/dL | RALB ([…], time 14 day): 2.7 g/dL | TBIL ([…], time 14 day): 0.1 mg/dL | TC ([…], time 14 day): 81.6 mg/dL | TG ([…], time 14 day): 171.4 mg/dL | TP ([…], time 14 day): 5.9 g/dL | gamma-GTP ([…], time 14 day): 1.4 IU/L | ALP ([…], time 28 day): 1375.4 IU/L | ALT ([…], time 28 day): 51.4 IU/L | AST ([…], time 28 day): 72.2 IU/L | BUN ([…], time 28 day): 21.4 mg/dL | CRE ([…], time 28 day): 0.3 mg/dL | Ca ([…], time 28 day): 10.8 mg/dL | Cl ([…], time 28 day): 102.8 meq/L | DBIL ([…], time 28 day): 0.038 mg/dL | GLC ([…], time 28 day): 157 mg/dL | IP ([…], time 28 day): 6.6 mg/dL | K ([…], time 28 day): 4.4 meq/L | LDH ([…], time 28 day): 70.8 IU/L | Na ([…], time 28 day): 145.2 meq/L | PL ([…], time 28 day): 171 mg/dL | RALB ([…], time 28 day): 2.8 g/dL | TBIL ([…], time 28 day): 0.1 mg/dL | TC ([…], time 28 day): 81.2 mg/dL | TG ([…], time 28 day): 125.6 mg/dL | TP ([…], time 28 day): 6.3 g/dL | gamma-GTP ([…], time 28 day): 1.2 IU/L
